These results are taken from patent EP1339379B1, “NOVEL USE OF PROTEIN HYDROLYSATES” (Henkel Kommanditgesellschaft auf Aktien, priority 2000, dated 2002).

This test can be described thus: Hair-restructuring effect by HP-DSC: melting point of permed hair strands after post-treatment with the active. The settings on record: melting point of the hair (DSC, Perkin Elmer DSC-7); permed strands dipped 10 min at 23°C in 1% aqueous solution of the active at pH 3, rinsed 1 min, dried, rested 16 h; comparison without post-treatment 149,8. The source says:
Strähnen der Fa. Alkinco (0,5g, Code 6634) wurden einer herkömmlichen Dauerwellbehandlungen mit dem Handelsprodukt Poly Lock-Normale Dauerwelle unterzogen. Im Rahmen dieser Dauerwellbehandlung wurden die Fasern in einem ersten Schritt für 40 Minuten bei Raumtemperatur der Reduktionslösung (enthaltend 7,9 Gew.-% Thioglykolsäure) ausgesetzt, mit reinem Wasser gespült und anschließend bei Raumtemperatur für 10 Minuten fixiert (Oxidationslösung, enthaltend 2,6 Gew.-% Wasserstoffperoxid). Nach der oxidativen Behandlung wurden die Fasern gespült und getrocknet.
Die Strähnen wurden jeweils bei einer Temperatur von 23°C 10 Minuten in eine 1% ige wäßrige Lösung der jeweiligen Wirkstoffe bei einem pH - Wert von 3, welcher mit Natronlauge oder Salzsäure eingestellt wurde, getaucht. Anschließend wurde jede Haarsträhne 1 Minute mit klarem Wasser gespült, getrocknet und 16 h ruhen gelassen.
Mittels einer DSC-Analyse (Perkin Elmer DSC-7) wurden die folgenden in Tabelle 1 dargestellten Schmelzpunkte ermittelt. Eine genaue Beschreibung der Methode findet sich beispielsweise in der DE 196 173 95 A1

Poly-L-Serin: the “Schmelzpunkt in °C” value was 151,9 °C. As for Poly-D/L-Alanin, the figure is 151,8 °C.
